In ChEMBL document CHEMBL1201862, “PubChem BioAssay data set” (2004):
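In this assay, cells in 96-well plates receive the compound at five concentrations for 48 hours. Endpoints are linearly interpolated between the surrounding concentrations. GI50 marks 50% less growth.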 Calls of active or inactive are those of the source. No stated cut-off is given here; in the data, active = GI50 up to about 1.1 µM and inactive = higher.

Legend:
Assay in all cases: NCI tumour cell line growth inhibition, 48 h
OVCAR-4 = system: OVCAR-4
HOP-92 = system: HOP-92
OVCAR-8 = system: OVCAR-8
HCT-116 = system: HCT-116
SR = system: SR
HCC 2998 = system: HCC 2998
OVCAR-5 = system: OVCAR-5
SNB-19 = system: SNB-19
UO-31 = system: UO-31
NCI/ADR-RES = system: NCI/ADR-RES
SN12C = system: SN12C
HOP-62 = system: HOP-62
K562 = system: K562
SF-268 = system: SF-268
SF-539 = system: SF-539
ACHN = system: ACHN
CAKI-1 = system: CAKI-1
IGROV-1 = system: IGROV-1
NCI-H522 = system: NCI-H522
HL-60 = system: HL-60

Measured: GI50

C[C@]12CCC(=O)C=C1CC[C@@H]1[C@@H]2[C@@H](O)C[C@@]2(C)[C@H]1CC[C@]2(O)C(=O)COC(=O)C1CCCC1
inactive: OVCAR-4 > 100 µM | HOP-92 > 100 µM | OVCAR-8 > 100 µM | HCT-116 > 100 µM | SR 43.3 µM | HCC 2998 > 100 µM | OVCAR-5 > 100 µM | SNB-19 > 100 µM | UO-31 > 100 µM | NCI/ADR-RES > 100 µM | SN12C > 100 µM | HOP-62 > 100 µM | K562 > 100 µM | SF-268 > 100 µM | SF-539 > 100 µM | ACHN > 100 µM | CAKI-1 > 100 µM | IGROV-1 > 100 µM | NCI-H522 > 100 µM | HL-60 > 100 µM

O=c1ccn(C2OC(COC3CCCCO3)C(OC3CCCCO3)C2OC2CCCCO2)c(=O)n1-c1ccccc1 (stereo not given)
inactive: OVCAR-4 > 100 µM | HOP-92 > 100 µM | OVCAR-8 > 100 µM | HCT-116 > 100 µM | SR 51.5 µM | HCC 2998 > 100 µM | OVCAR-5 > 100 µM | SNB-19 > 100 µM | UO-31 > 100 µM | NCI/ADR-RES > 100 µM | SN12C > 100 µM | HOP-62 > 100 µM | K562 91.6 µM | SF-268 > 100 µM | SF-539 > 100 µM | ACHN > 100 µM | CAKI-1 > 100 µM | IGROV-1 > 100 µM | NCI-H522 > 100 µM | HL-60 > 100 µM

CCOC(=O)/C=C(\C(=O)OCC)n1ccc(=O)n(Cc2cnnn2CCCCOC(C)=O)c1=O
inactive: OVCAR-4 12.3 µM | HOP-92 2.57 µM | OVCAR-8 5.08 µM | HCT-116 6.21 µM | SR 2.19 µM | HCC 2998 18.4 µM | OVCAR-5 12.4 µM | SNB-19 1.57 µM | UO-31 21.7 µM | NCI/ADR-RES 17.6 µM | SN12C 10.4 µM | HOP-62 19.7 µM | K562 2.37 µM | SF-268 15.6 µM | SF-539 2.03 µM | ACHN 1.83 µM | CAKI-1 2.38 µM | IGROV-1 14 µM | NCI-H522 1.53 µM | HL-60 2.79 µM

O=C(Nc1ccn(C2CC(O)C(COC(c3ccccc3)(c3ccccc3)c3ccccc3)O2)c(=O)n1)c1ccccc1 (stereo not given)
inactive: OVCAR-4 3.24 µM | HOP-92 1.57 µM | OVCAR-8 1.97 µM | HCT-116 2 µM | SR 2.44 µM | HCC 2998 7.36 µM | OVCAR-5 1.87 µM | SNB-19 3.77 µM | UO-31 6.81 µM | NCI/ADR-RES 2.46 µM | SN12C 1.89 µM | HOP-62 5.62 µM | K562 2.92 µM | SF-268 5.06 µM | SF-539 3.36 µM | ACHN 3.35 µM | CAKI-1 6.32 µM | IGROV-1 2.9 µM | NCI-H522 3.6 µM | HL-60 2.61 µM
